These results are taken from US9637496B2, “Substituted 7-azabicycles and their use as orexin receptor modulators” (priority 2013, dated 2017).

For one test, the target named is human orexin 2 receptor (Homo sapiens (Human), UniProt O43614). Put plainly: Human orexin 2 receptor radioligand binding ([3H]-EMPA competition, HEK293 membranes). Particulars: read-out: hOX2 Ki.
In another test the target is human orexin 1 receptor (Homo sapiens (Human), UniProt O43613). Description: Human orexin 1 receptor radioligand binding (competitive binding, CHO membranes). Particulars: read-out: hOX1 Ki.
human orexin 1 receptor, sequence (O43613 whole entry): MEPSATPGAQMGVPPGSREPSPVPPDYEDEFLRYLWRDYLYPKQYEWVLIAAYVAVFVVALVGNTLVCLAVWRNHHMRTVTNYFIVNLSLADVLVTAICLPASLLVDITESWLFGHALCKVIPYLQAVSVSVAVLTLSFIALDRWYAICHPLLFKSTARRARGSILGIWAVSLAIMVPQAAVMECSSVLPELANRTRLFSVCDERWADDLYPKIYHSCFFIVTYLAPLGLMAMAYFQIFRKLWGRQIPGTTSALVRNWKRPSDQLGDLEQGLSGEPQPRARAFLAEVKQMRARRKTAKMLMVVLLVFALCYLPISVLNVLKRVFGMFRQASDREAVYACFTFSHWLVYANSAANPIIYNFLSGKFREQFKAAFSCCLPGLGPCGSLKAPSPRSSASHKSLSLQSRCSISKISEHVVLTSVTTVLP
The target in a further test is rat orexin 1 receptor (Rattus norvegicus (Rat), UniProt P56718). Description: Rat orexin 1 receptor radioligand binding (competitive binding, HEK293 membranes). Particulars: read-out: rOX1 Ki.
rat orexin 1 receptor, sequence (P56718 whole entry): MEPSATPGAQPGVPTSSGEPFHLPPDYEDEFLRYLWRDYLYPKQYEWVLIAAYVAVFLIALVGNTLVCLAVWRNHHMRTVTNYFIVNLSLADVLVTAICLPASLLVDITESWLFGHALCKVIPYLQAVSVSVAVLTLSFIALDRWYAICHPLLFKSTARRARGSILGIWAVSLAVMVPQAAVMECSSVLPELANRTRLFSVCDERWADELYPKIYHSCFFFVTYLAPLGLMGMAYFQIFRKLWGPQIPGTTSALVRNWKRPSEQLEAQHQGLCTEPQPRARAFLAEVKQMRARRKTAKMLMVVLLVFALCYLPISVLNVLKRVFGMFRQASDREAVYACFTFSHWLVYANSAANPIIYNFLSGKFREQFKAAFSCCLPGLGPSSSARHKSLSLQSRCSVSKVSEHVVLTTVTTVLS
[1] abbreviates: human orexin 2 receptor, Table 2, averages from between 2-20 runs.
The mark [2] stands for this setting: human orexin 1 receptor, Table 2, averages from between 2-20 runs.
[3] abbreviates: rat orexin 1 receptor, Table 2, averages from between 2-20 runs.
Setting [4] is: Table 2, further testing, averages from 2-20 runs.

SMILES strings stand for the structures. pKi: −log10 of the molar value. Like-named read-outs stand apart in the source and are kept apart here.

human orexin 2 receptor, sequence (O43614 whole entry): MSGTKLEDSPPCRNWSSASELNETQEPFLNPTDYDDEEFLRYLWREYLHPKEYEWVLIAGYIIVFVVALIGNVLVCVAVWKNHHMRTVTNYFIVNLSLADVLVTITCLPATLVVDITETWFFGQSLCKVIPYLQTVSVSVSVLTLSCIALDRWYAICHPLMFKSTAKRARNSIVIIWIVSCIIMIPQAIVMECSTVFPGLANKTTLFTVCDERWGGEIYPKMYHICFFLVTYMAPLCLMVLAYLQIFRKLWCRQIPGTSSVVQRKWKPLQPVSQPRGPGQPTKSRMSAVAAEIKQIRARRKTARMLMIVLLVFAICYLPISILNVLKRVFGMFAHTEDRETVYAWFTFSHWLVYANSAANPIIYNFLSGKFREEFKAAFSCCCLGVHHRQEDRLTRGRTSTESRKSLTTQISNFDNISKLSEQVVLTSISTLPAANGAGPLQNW

Broadly, the pKi is the negative decadic logarithm of the Ki, by convention in mol/L. As for `O=C(c1ccc(F)cc1-n1nccn1)N1[C@@H]2CC[C@H]1[C@H](Nc1ccc(C(F)(F)F)cn1)C2` [Example 368, (4-fluoro-2-(2H-1,2,3-triazol-2-yl)phenyl)((1S,2R,4R)-2-((5-(trifluoromethyl)pyridin-2-yl)amino)-7-azabicyclo[2.2.1]heptan-7-yl)methanone], the pKi is 5.59 at human orexin 2 receptor (setting [1]), 7.15 at human orexin 1 receptor (setting [2]) and 7.11 at rat orexin 1 receptor (setting [3]).
On to `O=C(c1c(F)cccc1-c1ncccn1)N1[C@@H]2CC[C@H]1[C@H](Nc1ncc(C(F)(F)F)cc1F)C2` [Example 459, ((1S,2R,4R)-2-((3-fluoro-5-(trifluoromethyl)pyridin-2-yl)amino)-7-azabicyclo[2.2.1]heptan-7-yl)(2-fluoro-6-(pyrimidin-2-yl)phenyl)methanone], for which the pKi at human orexin 2 receptor (setting [4]) was 6.28; on human orexin 1 receptor (setting [4]), 7.15; on rat orexin 1 receptor (setting [4]), 7.59.
Regarding `O=C(c1cccc(Cl)c1-c1ncccn1)N1[C@@H]2CC[C@H]1[C@H](Nc1ccc(C(F)(F)F)cn1)C2` [Example 376, (3-chloro-2-(pyrimidin-2-yl)phenyl)((1S,2R,4R)-2-((5-(trifluoromethyl)pyridin-2-yl)amino)-7-azabicyclo[2.2.1]heptan-7-yl)methanone], the pKi was 6.96 on human orexin 2 receptor (setting [1]), 8.40 on human orexin 1 receptor and 8.00 at rat orexin 1 receptor.
The corresponding values for `Cc1cccc(C(=O)N2[C@@H]3CC[C@H]2[C@H](Nc2ccc(Br)cn2)C3)c1-c1ncco1` [Example 302, ((1S,2R,4R)-2-((5-bromopyridin-2-yl)amino)-7-azabicyclo[2.2.1]heptan-7-yl)(3-methyl-2-(oxazol-2-yl)phenyl)methanone] are 6.73, 8.30 and 8.30.
Regarding `O=C(c1cc(F)ccc1-c1ncccn1)N1[C@@H]2CC[C@H]1[C@H](Nc1ncc(C(F)(F)F)cn1)C2` [Example 415, (5-fluoro-2-(pyrimidin-2-yl)phenyl)((1S,2R,4R)-2-((5-(trifluoromethyl)pyrimidin-2-yl)amino)-7-azabicyclo[2.2.1]heptan-7-yl)methanone], the negative-log Ki (pKi) on human orexin 2 receptor was 5.68; at human orexin 1 receptor, 7.15; on rat orexin 1 receptor (setting [3]) it was 6.99.
As for `Cc1cccc(C(=O)N2[C@@H]3CC[C@H]2[C@H](Nc2ncc(Br)cn2)C3)c1-c1ncccn1` [Example 316, ((1S,2R,4R)-2-((5-bromopyrimidin-2-yl)amino)-7-azabicyclo[2.2.1]heptan-7-yl)(3-methyl-2-(pyrimidin-2-yl)phenyl)methanone], the pKi is 6.10 at human orexin 2 receptor (setting [1]), 7.23 on human orexin 1 receptor and 7.70 on rat orexin 1 receptor (setting [3]).
On to `Cc1noc(-c2cc(F)ccc2C(=O)N2[C@@H]3CC[C@H]2[C@H](Nc2cnc(C(F)(F)F)cn2)C3)n1` [Example 412, (4-fluoro-2-(3-methyl-1,2,4-oxadiazol-5-yl)phenyl)((1S,2R,4R)-2-((5-(trifluoromethyl)pyrazin-2-yl)amino)-7-azabicyclo[2.2.1]heptan-7-yl)methanone], for which the pKi at human orexin 2 receptor (setting [1]) was 5.32; on human orexin 1 receptor (setting [2]), 6.48; on rat orexin 1 receptor (setting [3]) it was 6.90.
The corresponding values for `O=C(c1cc(F)ccc1-c1ncccn1)N1[C@@H]2CC[C@H]1[C@H](Nc1ccc(C(F)(F)F)cn1)C2` [Example 371, (5-fluoro-2-(pyrimidin-2-yl)phenyl)((1S,2R,4R)-2-((5-(trifluoromethyl)pyridin-2-yl)amino)-7-azabicyclo[2.2.1]heptan-7-yl)methanone] are 6.21, 7.57 and 7.38.
